According to patent US20050107346A1, “N-acetylcolchinol-o-phosphate combination therapies with vascular damaging activity” (ASTRAZENECA AB, priority 2000, published 2005):

Key:
[1] = tested on: human Calu 6 tumour cells; assay: Calu 6 tumour model growth delay, ZD6126 in combination with cisplatin; format: in vivo; settings: athymic nude mice; ZD6126 100 mg/kg i.p. x5 days; cisplatin 4 mg/kg i.p. day 0
Description: In a second tumour model, Calu 6, the advantage of combining ZD6126 and cisplatin (cis-Platinum(II)Diammine Dichloride—Sigma P-4394) was confirmed. Athymic nude mice were implanted subcutaneously with 1×10^6 human Calu 6 tumour cells (obtained from American Type Culture Collection, 10801 University Boulevard, Manassas, Va. 20110-2209 Cat. no. Hm-56) and tumours allowed to grow until they were approximately 9 mm in diameter. Groups of 10 tumour bearing mice were then treated as follows:
ZD6126 alone was dosed 100 mg/kg i.p. on days 0, 1, 2, 3, 4.
Cisplatin alone was dosed 4 mg/kg i.p. on day 0.
In the combination arm cisplatin 4 mg/kg i.p. was dosed on day 0, and ZD6126 100 mg/kg i.p. was dosed on days 1, 2, 3, 4 and 5.
The combination of cisplatin and ZD6126 gave a growth delay (time to reach 2× starting volume) of 20.5 days compared to control tumours.

[2] = tested on: murine adenocarcinoma CaNT tumour; assay: CaNT tumour model growth delay, ZD6126 in combination with cisplatin; format: in vivo, mice
Description: ZD6126 alone was dosed on days 0, 2 and 4 using a split dose regimen of 100 mg/kg ZD6126, followed by a 2 hour interval, followed by a further 100 mg/kg ZD6126; doses were given intraperitoneally (i.p.).
Cisplatin (David Bull Laboratories) alone was dosed at 5 mg/kg i.p on day 0.
(§1) The combination treatment consisted of: • Day 0: ZD6126 100 mg/kg i.p., followed by a 2 hour interval, followed by a further 100 mg/kg ZD6126 i.p; and cisplatin 5 mg/kg given 10 minutes before first ZD6126 dose. • Days 2 and 4: ZD6126 100 mg/kg i.p., followed by a 2 hour interval, followed by a further 100 mg/kg ZD6126 i.p..
ZD6126 alone was dosed on days 0, 4, 7 and 11 using a split dose regimen of ZD6126 100 mg/kg i.p., followed by a 2 hour interval, followed by a further 100 mg/kg ZD6126 i.p.. Cisplatin alone was dosed at 5 mg/kg i.p on day 0 and day 7.
as §1, with “• Days 0 and 7:” for “• Day 0:”, “ZD6126 i.p.;” for “ZD6126 i.p; and”, “cisplatin” for “cisplatin 5 mg/kg”, “Days 3, 7” for “Days 2”, “and 10:” for “and 4:”

CaNT tumours = assay: CaNT tumour model growth delay, ZD6126 in combination with ionising radiation; format: in vivo, mice; settings: ZD6126 125 mg/kg i.p. days 0-4 and 7-11; radiation 15 Gy days 0 and 7
Description: The activity of combining ZD6126 and radiation in the CaNT tumour model was also investigated. Tumours were treated with either radiation alone (15 Gy days 0 and 7), ZD6126 alone (single dose of ZD6126 125 mg/kg i.p. on days 0, 1, 2, 3, 4, 7, 8, 9, 10 and 11), or a combination of both (15 Gy days 0 and 7, ZD6126 125 mg/kg i.p. on days 0, 1, 2, 3, 4, 7, 8, 9, 10 and 11). On the days radiation and ZD6126 were administered together,radiation treatment was given 3 hours after ZD6126 administration. Radiation was administered by placing the mice in lead boxes so that only the tumour bearing portion of the rear dorsum was exposed to a horizontal X-ray beam (Sheldon and Hill, B J C, 35, 795-808, […]). Mice were irradiated with 240 kV X-rays at a dose rate of 3.6 Gy/min.

murine KHT sarcoma [3] = assay: KHT sarcoma tumour cell survival (excision and colony formation), ZD6126 and radiation; format: in vivo, mice
Description: The murine KHT sarcoma grown in C3H mice was also used to confirm the advantage of combining ZD6126 and radiation. Tumours were treated with either radiation alone (0, 5, 10, 15 or 20 Gy single dose), ZD6126 100 mg/kg i.p., or radiation followed 1 hour later by ZD6126 100 mg/kg i.p.. The effects of either radiation alone, ZD6126 alone or the combination on tumour cell survival was assessed 24 hours later by excising the tumour, disaggregating the cells and determining the number of colonies formed after 10-14 days. Surviving fraction compared to untreated cells was then determined.

[4] = tested on: murine adenocarcinoma CaNT tumour; assay: In vivo cell survival excision assay, ZD6126 single versus divided doses in CaNT tumours; parameters: species or system mice
Description: In vivo cell survival was measured using an excision assay (D J Chaplin et al., Anticancer Research 19: 189-196 (1999)).
For each of the assays a) and b) below, the surviving fraction of tumour cells was determined as follows:
Tumours were excised at about 18 hours after treatment, weighed and disaggregated for 1 hour at 37 degrees Celsius in an enzyme cocktail containing 1 mg/ml pronase, 0.5 mg/ml DNAase and 0.5 mg/ml collagenase. Haemocytometer counts of trypan blue-excluding cells were made and viable cells seeded in appropriate concentrations to yield about 50 colonies/dish after in vitro incubation. Heavily irradiated feeder cells (V79 cells) were used at a concentration of 25,000/ml to support the growth of the surviving CaNT cells. The data were calculated as surviving fraction per gram of tumour.
ZD6126 was administered as a single dose of […] intra-peritoneally (i.p.) in saline with a small amount of 1% sodium carbonate added to aid the dissolution of ZD6126.
ZD6126 was dosed using a split dose regimen of 100 mg/kg ZD6126, followed by a time interval, followed by a further 100 mg/kg ZD6126; doses were given intraperitoneally (i.p.) in saline with a small amount of 1% sodium carbonate added to aid the dissolution of ZD6126.
The time intervals used were 1, 2, 3, 4 and 6 hours.
This improved effect varied with the proportion of total dose given in the first and second doses.
ZD6126 was dosed using split dose regimens of: • i) 25 mg/kg ZD6126, followed by a 2 hour interval, followed by a further 175 mg/kg ZD6126; • ii) 50 mg/kg ZD6126, followed by a 2 hour interval, followed by a further 150 mg/kg ZD6126; • iii) 100 mg/kg ZD6126, followed by a 2 hour interval, followed by a further 100 mg/kg ZD6126; • iv) 150 mg/kg ZD6126, followed by a 2 hour interval, followed by a further 50 mg/kg ZD6126; • v) 175 mg/kg ZD6126, followed by a 2 hour interval, followed by a further 25 mg/kg ZD6126;
All doses were given intraperitoneally (i.p.) in saline with a small amount of 1% sodium carbonate added to aid the dissolution of ZD6126.

[5] = tested on: FaDu cells (human squamous cell carcinoma of the pharynx); assay: FaDu tumour model growth delay, ZD6126 in combination with paclitaxel; format: in vivo; settings: SCID mice; single dose ZD6126 125 mg/kg i.p.; paclitaxel 15 mg/kg i.p.
Description: In a third tumour model 5×10^5FaDu cells (human squamous cell carcinoma of the pharynx) were implanted onto the rear dorsum of 12-16 week old, female SCID mice. When the tumours had become established they were excised and cut into small tumour fragments approximately 1 mm^3. These fragments were implanted subcutaneously into further SCID mice. Once these tumours had become established (approximately 6 mm diameter) mice were treated with either a single dose of ZD6126 (125 mg/kg i.p.) alone, a single dose of paclitaxel (Taxol-BMS) (15 or 30 mg/kg i.p.) alone or the combination of a single dose of paclitaxel (15 mg/kg i.p.) and ZD6126 (125 mg/kg i.p.), paclitaxel being given 15 minutes before ZD6126.

murine KHT sarcoma [6] = assay: KHT sarcoma tumour cell survival (excision and colony formation), cisplatin plus ZD6126; format: in vivo; settings: 10 mg/kg cisplatin i.p. alone; assessed 24 hours later
Description: In the murine KHT sarcoma model (Lingyun Li, B. S. et al, Int. J. Radiation Oncology Biol. Phys 42, 899-903, 1998) tumours were treated with either 10 mg/kg cisplatin i.p. alone or 10 mg/kg cisplatin plus ZD6126 (10-100 mg/kg i.p.), cisplatin given 1 hour prior to ZD6126. The effects of the treatments on tumour cell survival was assessed 24 hours later by excising the tumour, disaggregating the cells and determining the number of colonies formed after 10-14 days. Surviving fraction compared to untreated cells was then determined.

[7] = study 1, ZD6126 2x100 mg/kg i.p. 2 h apart days 0, 2, 4, cisplatin 5 mg/kg i.p. day 0
[8] = study 2, ZD6126 2x100 mg/kg i.p. 2 h apart days 0, 4, 7, 11, cisplatin 5 mg/kg i.p. days 0 and 7

Compound	growth delay (time to reach 2× starting volume) compared to control tumours [1] [days]	Mean growth delay (vs control) - days [2, 7] [days]	Mean growth delay (vs control) - days [2, 8] [days]	Mean growth delay (vs control) - days (CaNT tumours) [days]	tumour cells killed (murine KHT sarcoma [3]; ZD6126 alone 100 mg/kg)	enhancement in cell killing (murine KHT sarcoma [3]; ZD6126 combined with radiation doses of 5, 10 or 15 Gy)	Plus ZD6126 % cell survival (murine KHT sarcoma [3]; radiation dose 0 Gy, ZD6126 100 mg/kg i.p., C3H mice) [%]	ZD6126 Enhancement (murine KHT sarcoma [3]; radiation dose 0 Gy, ZD6126 100 mg/kg i.p., over controls) [fold]	Plus ZD6126 % cell survival (murine KHT sarcoma [3]; radiation dose 5 Gy, ZD6126 100 mg/kg i.p. 1 hour later) [%]	ZD6126 Enhancement (murine KHT sarcoma [3]; radiation dose 5 Gy, ZD6126 100 mg/kg i.p.) [fold]	Plus ZD6126 % cell survival (murine KHT sarcoma [3]; radiation dose 10 Gy, ZD6126 100 mg/kg i.p. 1 hour later) [%]	ZD6126 Enhancement (murine KHT sarcoma [3]; radiation dose 10 Gy, ZD6126 100 mg/kg i.p.) [fold]	Plus ZD6126 % cell survival (murine KHT sarcoma [3]; radiation dose 15 Gy, ZD6126 100 mg/kg i.p. 1 hour later) [%]	ZD6126 Enhancement (murine KHT sarcoma [3]; radiation dose 15 Gy, ZD6126 100 mg/kg i.p.) [fold]	split dose proportion giving the best anti-tumour effect ([4]; 100 mg/kg, 2 hour interval, further 100 mg/kg i.p.)	anti-tumour effect, as measured by surviving fraction of tumour cells, divided doses versus single dose ([4]; divided doses 2 hours apart (25+175, 50+150, 100+100, 150+50, 175+25 mg/kg i.p.) vs single 200 mg/kg)	surviving fraction per gram of tumour, divided doses versus single dose ([4]; two doses of 100 mg/kg i.p. separated by 2, 3 or 4 hours vs a single 200 mg/kg dose, about 18 hours after treatment)	Mean growth delay (vs control) - days [5] [days]	cell killing (murine KHT sarcoma [6])
COc1cc2c(c(OC)c1OC)-c1ccc(OP(=O)(O)O)cc1[C@@H](NC(C)=O)CC2 [ZD6126, (5S)-5-(acetylamino)-9,10,11-trimethoxy-6,7-dihydro-5H-dibenzo[a,c]cyclohepten-3-yl dihydrogen phosphate]	10.1	6.5	9.9	9.1	97-98%	100-200 fold	2.5	40	0.16	125	0.015	100	0.0016	219	best effect was seen with equal split doses	greater with divided doses of ZD6126 than with a single dose	significantly more effective	4.3	–
CC(=O)O[C@H]1C(=O)[C@@]2(C)[C@H]([C@H](OC(=O)c3ccccc3)[C@]3(O)C[C@H](OC(=O)[C@H](O)[C@@H](NC(=O)c4ccccc4)c4ccccc4)C(C)=C1C3(C)C)[C@]1(OC(C)=O)CO[C@@H]1C[C@@H]2O [Paclitaxel, paclitaxel, reference compound]	–	–	–	–	–	–	–	–	–	–	–	–	–	–	–	–	–	5.1	–
N.N.[Cl-].[Cl-].[Pt+2] [Cisplatin, cis-Platinum(II)Diammine Dichloride, reference compound]	6.0	2.1	7.7	–	–	–	–	–	–	–	–	–	–	–	–	–	–	–	approximately 98%
